Reference: patent publication US7566737B2 (Genfit, priority 2002, dated 2009)

Key:
[1] = biological target: T1, human PPARα (Homo sapiens, UniProt Q07869); assay: PPARα/Gal4 transactivation system; assay type: cell-based; conditions: PPAR/Gal4 transactivation system
T1 construct: expressed in transfected cells; host or cells: RK13 or COS-7
T1 sequence (Q07869 239-466 limits assumed): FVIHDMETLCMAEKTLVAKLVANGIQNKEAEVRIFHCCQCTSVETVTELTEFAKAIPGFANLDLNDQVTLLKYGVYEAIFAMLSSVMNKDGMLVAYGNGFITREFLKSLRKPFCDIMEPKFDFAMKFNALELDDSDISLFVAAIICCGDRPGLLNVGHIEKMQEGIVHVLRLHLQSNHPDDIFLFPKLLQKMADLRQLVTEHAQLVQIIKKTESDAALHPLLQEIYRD
Protocol: (§1) PPAR activation was tested in vitro in RK13 or COS-7 fibroblast cell lines by measuring the transcriptional activity of chimeras composed of the DNA binding domain of the yeast Gal4 transcription factor and the ligand binding domain of the different PPARs. These latter results were then confirmed in cell lines according to the following protocols.
(§2) Culture protocols: RK13 were from ECACC (Porton Down, UK) and were grown in DMEM medium supplemented with 10% (V/V) fetal calf serum, 100 U/ml penicillin (Gibco, Paisley, UK) and 2 mM L-glutamine (Gibco, Paisley, UK). COS-7 cells were from ATCC and were grown in DMEM medium supplemented with 10% (V/V) fetal calf serum, 1% penicillin/streptomycine (Biochrom, AG), 1% of amino acids (Gibco) and 1% sodium pyruvate (Gibco).
(§3) The culture medium was changed every two days. Cells were kept at 37° C. in a humidified 95% air/5% CO2 atmosphere.
(§4) Description of plasmids used for transfection: The plasmids Gal4(RE)_TkpGL3, pGal4-hPPARα, pGal4-hPPARγ, pGal4-hPPARδ and pGal4-φ have been described in the literature (Raspe E et al., 1999). The pGal4-hPPARα, pGal4-hPPARγ and pGal4-hPPARδ constructs were obtained by cloning into the pGal4-φ vector PCR-amplified DNA fragments corresponding to the DEF domains of the human PPARs nuclear receptors.
(§5) Transfection of RK13: RK13 cells were seeded in 24-well culture dishes at 5×10^4 cells/well and transfected for 2 hours with the reporter plasmid Gal4(RE)_TkpGL3 (50 ng/well), the expression vectors pGal4-φ, pGal4-hPPARα, pGal4-hPPARγ and pGal-hPPARδ (100 ng/well) and the transfection efficiency control vector pRL-CMV (1 ng/well) according to the previously described protocol (Raspe E, Madsen L, Lefebvre A M, Leitersdorf I, Gelman L, Peinado-Onsurbe J, Dallongeville J, Fruchart J C, Berge R and Staels B, 1999), then incubated for 36 hours with the test compounds. RK13 cells were incubated with the different compounds at concentrations of 10, 30 and 100 μM or 1, 10 and 100 μM for 24 hours. At the end of the experiment, the cells were lysed (Gibco, Paisley, UK) and luciferase activity was determined with a Dual-Luciferase™ Reporter Assay System kit (Promega, Madison, Wis., USA) according to the supplier's instructions. The protein content of the cell extracts was then measured with the Bio-Rad Protein Assay (Bio-Rad, Munich, Germany) as directed by the supplier.
(§6) Transfection of COS7: Cells in suspension are transfected, in the presence of 10% (V/V) fetal calf serum, with 150 ng of DNA per well with a pGal4-PPAR/Gal4(RE)_TkpGL3 ratio of 1/10. Cells are then seeded in 96 well plates (4×10^4 cells/well) and incubated for 24 hours at 37° C. Activation with compounds is performed on 24 hours at 37° C. in culture medium without serum. At the end of the activation period, cells are lysed and luciferase activity is determined, using the Steady Glow Luciferase Kit (Promega), according to the supplier's instructions.

[2] = system: HaCat cells; assay: Antioxidant properties on cell cultures (carboxy-H2DCFDA fluorescence, AAPH stress), keratinocytes; assay type: cell-based, human; conditions: AAPH 750 μM; for antioxidant properties on cell cultures (in words): 25 μM for 24 h
Protocol: (§7) The reduction in the intensity of the emitted fluorescence signal was determined in cells treated with the compounds in the following manner.
(§8) Prior to stress the cells with an oxidative agent such as AAPH (CAS number 2997-92-4), cells are incubated with compounds of interest at 25 μM for 24 h. Then the culture medium is discarded and cells are rinsed two times with PBS. Cells are then incubated 30 min at 37° C. with a cell-permeant indicator for reactive oxygen species that is nonfluorescent until the acetate groups are removed by intracellular esterases and oxidation occurs within the cell 5-(and-6)-carboxy-2′,7′-dichlorodihydrofluorescein diacetate (carboxy-H2DCFDA). The probes are prepared in PBS and incubated at the final concentration of 25 μM. After the incubation with the probe, cells are rinsed and incubated another 30 min with the oxidative solution containing AAPH at 750 μM in culture medium without phenol red and serum.
(§9) The fluorescence is then measured with a fluorimeter with the following wavelength, […].
(§10) Two different cell types have been tested with the inventive compounds. Human normal primary fibroblasts and HaCat cells which are a human keratinocyte cell line.

[3] = biological target: T2, human PPARγ (Homo sapiens, UniProt P37231); assay: PPARγ/Gal4 transactivation system; assay type: cell-based; conditions: PPAR/Gal4 transactivation system
T2 construct: expressed in transfected cells; host or cells: RK13 or COS-7
T2 sequence (P37231 238-503 limits assumed): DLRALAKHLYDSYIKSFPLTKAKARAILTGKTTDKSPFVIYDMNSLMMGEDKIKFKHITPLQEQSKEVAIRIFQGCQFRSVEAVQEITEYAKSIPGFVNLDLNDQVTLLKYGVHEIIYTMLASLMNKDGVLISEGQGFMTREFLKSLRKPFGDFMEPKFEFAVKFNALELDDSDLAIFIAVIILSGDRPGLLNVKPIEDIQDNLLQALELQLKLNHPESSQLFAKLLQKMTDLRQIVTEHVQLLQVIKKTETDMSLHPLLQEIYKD
Protocol: as §1, §2, §3, §4, §5, §6

[4] = system: Human normal primary fibroblasts; assay: Antioxidant properties on cell cultures (carboxy-H2DCFDA fluorescence, AAPH stress), fibroblasts; assay type: cell-based; conditions: AAPH 750 μM; for antioxidant properties on cell cultures (in words): 25 μM for 24 h
Protocol: as §7, §8, §9, §10

[5] = system: hApoE2 Knock-in transgenic mice; assay: Effects on triglycerides and cholesterol metabolism in vivo; set-up: species or system mouse
Protocol: Treatment of animals: hApoE2 knock-in transgenic mice were kept on a 12-hour light/dark cycle at a constant temperature of 20±3° C. After a 1 week acclimation, mice were separated in groups of 6 animals selected such that the distribution of their body weight and plasmatic lipid levels determined before the experiment were uniform. The test compounds were suspended in carboxymethylcellulose and administered by intragastric gavage at the indicated doses, once a day for 7 or 8 days. Animals had access to food and water ad libitum. At the end of the experiment the animals were weighed and sacrificed under anesthesia. Blood was collected on EDTA. Plasma was prepared by centrifugation at 3000 rpm for 20 minutes. Organs were harvested, frozen in liquid nitrogen and stored at −80° C. for subsequent analysis.
Measurement of serum lipids: Serum lipid concentrations (total cholesterol and triglycerides) were determined by a colorimetric assay (Boehringer, Mannheim, Germany) according to the supplier's instructions.

[6] = biological target: T3, human PPARδ (Homo sapiens, UniProt Q03181); assay: PPARδ/Gal4 transactivation system; assay type: cell-based
T3 construct: expressed in transfected cells; host or cells: RK13 or COS-7
T3 sequence (Q03181 211-439 limits assumed): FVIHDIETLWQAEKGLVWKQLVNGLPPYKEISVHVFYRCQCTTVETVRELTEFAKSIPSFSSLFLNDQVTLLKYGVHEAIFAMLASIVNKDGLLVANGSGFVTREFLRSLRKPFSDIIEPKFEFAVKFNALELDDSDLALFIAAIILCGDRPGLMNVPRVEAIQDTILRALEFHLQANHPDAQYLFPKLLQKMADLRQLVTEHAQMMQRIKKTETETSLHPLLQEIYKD
Protocol: as §1, §2, §3, §4, §5
Transfection of COS7: Cells in suspension are transfected, in the presence of 10% (V/V) fetal calf serum, with 150 ng of DNA per well with a pGal4-PPAR/Gal4(RE)_TkpGL3 ratio of 1/10. […] At the end of the activation period, cells are lysed and luciferase activity is determined, using the Steady Glow Luciferase Kit (Promega), according to the supplier's instructions.

[7] = system: C57BLKS-m Lepr^db transgenic mice; assay: Antidiabetic effect on insulin and glucose; assay type: in vivo, mouse; conditions: 0.1 to 30 mg/Kg/day for 21 days
Protocol: Genetically modified C57BLKS-m Lepr^db mice were used to asses antidiabetic effect of the inventive compounds. Mice were randomized according to their plasma lipid, glucose and insulin contents. Treatments were administered once daily by gavage (10 ml/kg) for the duration of the treatment. For oral administrations, the drugs were suspended in CMC 1% or CMC 1%+Tween 80 0.1%. The plasma glucose was measured using a kit reagent from Biomerieux (France). The plasma insulin was measured using a solid phase two-site enzyme immunoassay from Crystal Chem Inc. (USA). The results are exemplified in FIGS. 5-1 to 5-4 which illustrate the activity of inventive compounds 29 and 62 on glucose and insulin.

[8] = 50 mg/kg/day for 7 or 8 days, FIGS. 4-13, 4-15, 4-17, 4-19
[9] = 50 mg/kg/day for 7 or 8 days, FIGS. 4-14, 4-16, 4-18, 4-20
[10] = 1, 3, 10 and 30 mg/kg/day for 14 days

Compound | concentration at which maximal activity is observed [1] | antioxidant properties on cell cultures (in words) [2] | activation of PPAR γ (in words) [3] | antioxidant properties on cell cultures (in words) [4] | plasma cholesterol [5, 8] | plasma triglycerides [5, 9] | activation of PPAR δ (in words) [6] | concentration at which maximal activity is observed [3] | plasma glucose level [7] | plasma insulin level [7] | plasma cholesterol [5, 10] | plasma triglycerides [5, 10] | concentration at which maximal activity is observed ([6]; PPAR/Gal4 transactivation system) | % of oxidative reduction versus control cells ([2]; compounds at 25 μM for 24 h) | % of oxidative reduction versus control cells ([4]; compounds at 25 μM for 24 h)
Cc1cc(/C=C/C(=O)c2ccc(SC(F)(F)F)cc2)cc(C)c1OC(C)(C)C(=O)O [Compound 54, 1-[4-trifluoromethylthiophenyl]-3-[3,5-dimethyl-4-carboxydimethylmethyloxyphenyl]prop-2-en-1-one] | 0.03 µM | antioxidant properties | can activate | antioxidant properties | decrease | decrease | can activate |  |  |  |  |  |  |  | 
Cc1cc(/C=C/C(=O)c2ccc(C(F)(F)F)cc2)cc(C)c1OC(C)(C)C(=O)O [Compound 58, 1-[4-trifluoromethylphenyl]-3-[3,5-dimethyl-4-carboxydimethylmethyloxyphenyl]prop-2-en-1-one] | 0.3 µM | antioxidant properties |  | antioxidant properties | decrease | decrease | can activate | 1 µM |  |  |  |  |  |  | 
Cc1cc(/C=C/C(=O)c2ccc(OC(F)(F)F)cc2)cc(C)c1OC(C)(C)C(=O)O [Compound 62] | 0.3 µM | antioxidant properties |  | antioxidant properties | decrease | decrease |  | 10 µM | decrease | decrease | decrease | decrease | 3 µM |  | 
CCCOc1ccc(C(=O)/C=C/c2cc(C)c(OC(C)(C)C(=O)O)c(C)c2)cc1 [Compound 70, 1-[4-propyloxyphenyl]-3-[3,5-dimethyl-4-carboxydimethylmethyloxyphenyl]prop-2-en-1-one] | 0.03 µM |  | can also activate |  | decrease | decrease | can also activate |  |  |  |  |  |  | 47% | 53%
